Key:
Assay type in all cases: in vivo
[1] = system: harmful plants ABUTH, AMARE, ECHCG, LOLRI, MATIN, POAAN, SETVI, STEME, ALOMY, DIGSA, KCHSC and VERPE; assay: Herbicidal pre-emergence action (test C), summary of Tables C1-C12; settings: application rate of 1280 or 320 g of active ingredient per hectare; summary in words
How it was run: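 Visual % damage versus untreated plants (0% = like control, 100% = died) was scored after about 3 weeks in the greenhouse. Before emergence, seeds sown in sandy loam got a soil-surface spray of compound as WP or EC plus 0.5% additive, using 600 L/ha water at rates of 1280 or 320 g/ha.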

[2] = system: Abutilon theophrasti (ABUTH); assay: Herbicidal post-emergence action (Table B5); settings: rated visually after about 3 weeks, 100% = plants have died, 0% = like control plants
How it was run: (§1)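 Post-emergence spray, one-leaf stage (2–3 wk after sowing), sandy loam, greenhouse. WP/EC in water + 0.5% additive, 600 L/ha, 1280 or 320 g/ha. Visual % activity vs untreated after ~3 wk (0% = like control, 100% = plants dead).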

Setaria viridis (SETVI) [3] = assay: Herbicidal pre-emergence action, test C (Table C4); settings: visual scoring after about 3 weeks, 100% = plants have died, 0% = like control plants
How it was run: (§2)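 Greenhouse pre-emergence test: compound formulations (WP or EC) are applied at 1280 or 320 g/ha to the soil surface over sown weed seeds, with 0.5% additive in 600 L/ha water. After about 3 weeks, percent activity is assessed visually, 100% indicating dead plants.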

[4] = system: Amaranthus retroflexus (AMARE); assay: Herbicidal post-emergence action (Table B6); settings: visual rating about 3 weeks after treatment, 100% = plants have died, 0% = like control plants
How it was run: as §1

[5] = system: Echinochloa crus-galli (ECHCG); assay: Herbicidal pre-emergence action, test C (Table C1); settings: visual scoring after about 3 weeks, 100% = plants have died, 0% = like control plants
How it was run: as §2

Poa annua (POAAN) [6] = assay: Herbicidal post-emergence action (Table B3); settings: rated visually after about 3 weeks, 100% = plants have died, 0% = like control plants
How it was run: as §1

Lolium rigidum (LOLRI) [7] = assay: Herbicidal post-emergence action (Table B2); settings: rated visually after about 3 weeks, 100% = plants have died, 0% = like control plants
How it was run: as §1

[8] = system: Echinochloa crus-galli (ECHCG); assay: Herbicidal post-emergence action (Table B1); settings: rated visually after about 3 weeks, 100% = plants have died, 0% = like control plants
How it was run: as §1

Poa annua (POAAN) [9] = assay: Herbicidal pre-emergence action, test C (Table C3); settings: visual scoring after about 3 weeks, 100% = plants have died, 0% = like control plants
How it was run: as §2

Stellaria media (STEME) [10] = assay: Herbicidal pre-emergence action, test C (Table C8); settings: visual scoring after about 3 weeks, 100% = plants have died, 0% = like control plants
How it was run: as §2

Setaria viridis (SETVI) [11] = assay: Herbicidal post-emergence action (Table B4); settings: rated visually after about 3 weeks, 100% = plants have died, 0% = like control plants
How it was run: as §1

Lolium rigidum (LOLRI) [12] = assay: Herbicidal pre-emergence action, test C (Table C2); settings: visual scoring after about 3 weeks, 100% = plants have died, 0% = like control plants
How it was run: as §2

Stellaria media (STEME) [13] = assay: Herbicidal post-emergence action (Table B8); settings: visual rating about 3 weeks after treatment, 100% = plants have died, 0% = like control plants
How it was run: as §1

[14] = system: Amaranthus retroflexus (AMARE); assay: Herbicidal pre-emergence action, test C (Table C6); settings: visual scoring after about 3 weeks, 100% = plants have died, 0% = like control plants
How it was run: as §2

[15] = system: Abutilon theophrasti (ABUTH); assay: Herbicidal pre-emergence action, test C (Table C5); settings: visual scoring after about 3 weeks, 100% = plants have died, 0% = like control plants
How it was run: as §2

[16] = system: harmful plants ABUTH, AMARE, ECHCG, LOLRI, MATIN, POAAN, SETVI, STEME, ALOMY, DIGSA, KCHSC and VERPE; assay: Herbicidal post-emergence action, summary of Tables B1-B12; settings: application rate of 1280 or 320 g of active ingredient per hectare; summary in words
How it was run: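 Activity scored by eye roughly 3 weeks post-treatment against untreated plants, from 0% (no effect) to 100% (plants dead). Application rates were 1280 or 320 g/ha, as aqueous WP/EC spray plus 0.5% additive at 600 L/ha, onto one-leaf-stage weeds grown 2–3 weeks in sandy loam.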

Fc1cc(Cl)cnc1Oc1cccc(F)c1-c1cc(C(F)F)no1 [Example 1-19]
herbicidal activity against the harmful plants of Tables C1-C12 in pre-emergence treatment [1]: very good herbicidal activity | Post-emergence action against Abutilon theophrasti (ABUTH) ([2]; 320 g/ha): 100% | Post-emergence action against Abutilon theophrasti (ABUTH) ([2]; 1280 g/ha): 100% | Pre-emergence action against Setaria viridis (SETVI) (Setaria viridis (SETVI) [3]; dosage 320 g/ha): 100% | Pre-emergence action against Setaria viridis (SETVI) (Setaria viridis (SETVI) [3]; dosage 1280 g/ha): 100% | Post-emergence action against Amaranthus retroflexus (AMARE) ([4]; dosage 320 g/ha): 100% | Post-emergence action against Amaranthus retroflexus (AMARE) ([4]; dosage 1280 g/ha): 100% | Pre-emergence action against Echinochloa crus-galli (ECHCG) ([5]; dosage 320 g/ha): 100% | Pre-emergence action against Echinochloa crus-galli (ECHCG) ([5]; dosage 1280 g/ha): 100% | Post-emergence action against Poa annua (POAAN) (Poa annua (POAAN) [6]; 320 g/ha): 100% | Post-emergence action against Poa annua (POAAN) (Poa annua (POAAN) [6]; 1280 g/ha): 100% | Post-emergence action against Lolium rigidum (LOLRI) (Lolium rigidum (LOLRI) [7]; 320 g/ha): 100% | Post-emergence action against Lolium rigidum (LOLRI) (Lolium rigidum (LOLRI) [7]; 1280 g/ha): 100% | Post-emergence action against Echinochloa crus-galli (ECHCG) ([8]; 320 g/ha): 100% | Post-emergence action against Echinochloa crus-galli (ECHCG) ([8]; 1280 g/ha): 100% | Pre-emergence action against Poa annua (POAAN) (Poa annua (POAAN) [9]; dosage 320 g/ha): 100% | Pre-emergence action against Poa annua (POAAN) (Poa annua (POAAN) [9]; dosage 1280 g/ha): 100% | Pre-emergence action against Stellaria media (STEME) (Stellaria media (STEME) [10]; dosage 320 g/ha): 100% | Pre-emergence action against Stellaria media (STEME) (Stellaria media (STEME) [10]; dosage 1280 g/ha): 100% | Post-emergence action against Setaria viridis (SETVI) (Setaria viridis (SETVI) [11]; 320 g/ha): 100% | Post-emergence action against Setaria viridis (SETVI) (Setaria viridis (SETVI) [11]; 1280 g/ha): 100% | Pre-emergence action against Lolium rigidum (LOLRI) (Lolium rigidum (LOLRI) [12]; dosage 320 g/ha): 100% | Pre-emergence action against Lolium rigidum (LOLRI) (Lolium rigidum (LOLRI) [12]; dosage 1280 g/ha): 100% | Post-emergence action against Stellaria media (STEME) (Stellaria media (STEME) [13]; dosage 320 g/ha): 100% | Post-emergence action against Stellaria media (STEME) (Stellaria media (STEME) [13]; dosage 1280 g/ha): 100% | Pre-emergence action against Amaranthus retroflexus (AMARE) ([14]; dosage 320 g/ha): 100% | Pre-emergence action against Amaranthus retroflexus (AMARE) ([14]; dosage 1280 g/ha): 100% | Pre-emergence action against Abutilon theophrasti (ABUTH) ([15]; dosage 320 g/ha): 100% | Pre-emergence action against Abutilon theophrasti (ABUTH) ([15]; dosage 1280 g/ha): 100% | herbicidal activity against the harmful plants of Tables B1-B12 in post-emergence treatment [16]: very good herbicidal activity

FC(F)c1cc(-c2ccccc2Oc2ccc(Cl)cn2)on1 [Example 1-35]
herbicidal activity against the harmful plants of Tables C1-C12 in pre-emergence treatment [1]: very good herbicidal activity | Post-emergence action against Abutilon theophrasti (ABUTH) ([2]; 320 g/ha): 100% | Post-emergence action against Abutilon theophrasti (ABUTH) ([2]; 1280 g/ha): 100% | Pre-emergence action against Setaria viridis (SETVI) (Setaria viridis (SETVI) [3]; dosage 320 g/ha): 100% | Pre-emergence action against Setaria viridis (SETVI) (Setaria viridis (SETVI) [3]; dosage 1280 g/ha): 100% | Post-emergence action against Amaranthus retroflexus (AMARE) ([4]; dosage 320 g/ha): 100% | Post-emergence action against Amaranthus retroflexus (AMARE) ([4]; dosage 1280 g/ha): 100% | Pre-emergence action against Echinochloa crus-galli (ECHCG) ([5]; dosage 1280 g/ha): 100% | Post-emergence action against Poa annua (POAAN) (Poa annua (POAAN) [6]; 320 g/ha): 100% | Post-emergence action against Poa annua (POAAN) (Poa annua (POAAN) [6]; 1280 g/ha): 100% | Post-emergence action against Lolium rigidum (LOLRI) (Lolium rigidum (LOLRI) [7]; 1280 g/ha): 100% | Post-emergence action against Echinochloa crus-galli (ECHCG) ([8]; 320 g/ha): 100% | Post-emergence action against Echinochloa crus-galli (ECHCG) ([8]; 1280 g/ha): 100% | Pre-emergence action against Poa annua (POAAN) (Poa annua (POAAN) [9]; dosage 320 g/ha): 100% | Pre-emergence action against Poa annua (POAAN) (Poa annua (POAAN) [9]; dosage 1280 g/ha): 100% | Pre-emergence action against Stellaria media (STEME) (Stellaria media (STEME) [10]; dosage 320 g/ha): 100% | Pre-emergence action against Stellaria media (STEME) (Stellaria media (STEME) [10]; dosage 1280 g/ha): 100% | Post-emergence action against Setaria viridis (SETVI) (Setaria viridis (SETVI) [11]; 1280 g/ha): 100% | Pre-emergence action against Lolium rigidum (LOLRI) (Lolium rigidum (LOLRI) [12]; dosage 1280 g/ha): 90% | Post-emergence action against Stellaria media (STEME) (Stellaria media (STEME) [13]; dosage 320 g/ha): 100% | Post-emergence action against Stellaria media (STEME) (Stellaria media (STEME) [13]; dosage 1280 g/ha): 100% | Pre-emergence action against Amaranthus retroflexus (AMARE) ([14]; dosage 320 g/ha): 100% | Pre-emergence action against Amaranthus retroflexus (AMARE) ([14]; dosage 1280 g/ha): 100% | Pre-emergence action against Abutilon theophrasti (ABUTH) ([15]; dosage 320 g/ha): 100% | Pre-emergence action against Abutilon theophrasti (ABUTH) ([15]; dosage 1280 g/ha): 100% | herbicidal activity against the harmful plants of Tables B1-B12 in post-emergence treatment [16]: very good herbicidal activity

— patent US12052991B2, “Substituted pyridinyloxybenzenes and salts thereof and use thereof as herbicidal agents” (Bayer Aktiengesellschaft, priority 2018, dated 2024)
